Test results: US20220282217A1, “COMPOSITIONS AND METHODS FOR PREPARING T CELL COMPOSITIONS AND USES THEREOF” (priority 2019, published 2022)
Where a SMILES comes first, the peptide text is derived from it.

biological target: HLA-A02.01 (Homo sapiens, UniProt P04439, D140Y/D185E/D98H/E176V/E277Q/G131W/G231S/I119V/I121R/I166T/I218V/L300P/L318F/N151K/N90K/P208A/P217A/Q86G/Q94H/R138H/R169H/T345S); test: Class I MHC peptide binding affinity (displacement of radiolabeled reference peptide); settings: BTK C481S peptide; HLA Allele A02.01; read-out: Affinity
Experimental: In brief, MHCI complexes were prepared and bound to radiolabeled reference peptides. Peptides were incubated at varying concentrations with these complexes for 2 days, and the amount of remaining radiolabeled peptide bound to […] was measured using size exclusion gel-filtration.

IC50	SMILES
4000 nM	CSCC[C@H](NC(=O)[C@@H](N)Cc1ccc(O)cc1)C(=O)N[C@@H](C)C(=O)N[C@@H](CC(N)=O)C(=O)NCC(=O)N[C@@H](CO)C(=O)N[C@@H](CC(C)C)C(=O)N[C@@H](CC(C)C)C(=O)N[C@@H](CC(N)=O)C(=O)O (H-YMANGSLLN-OH; N-terminus and C-terminus assumed)

same assay, conditions: Observed Affinity (IC50; (nM)), allele A02.01

SMILES	IC50
CC[C@H](C)[C@H](NC(=O)[C@H](CC(N)=O)NC(=O)[C@H](CCSC)NC(=O)[C@H](Cc1c[nH]cn1)NC(=O)[C@H](CC(N)=O)NC(=O)CNC(=O)[C@H](CC(C)C)NC(=O)[C@@H](N)Cc1ccc(O)cc1)C(=O)N[C@@H](C)C(=O)N[C@@H](CC(N)=O)C(=O)O (H-YLGNHMNIAN-OH; N-terminus and C-terminus assumed)	1340 nM
CC[C@H](C)[C@H](N)C(=O)N[C@H](C(=O)N[C@H](C(=O)N[C@@H](CCC(=O)O)C(=O)N[C@@H](Cc1ccccc1)C(=O)N[C@@H](CCSC)C(=O)N[C@H](C(=O)N[C@@H](Cc1ccc(O)cc1)C(=O)NCC(=O)N[C@@H](CC(N)=O)C(=O)O)[C@@H](C)O)[C@@H](C)CC)[C@@H](C)CC	1550 nM
CC[C@H](C)[C@H](NC(=O)[C@H](CCCCN)NC(=O)[C@H](Cc1ccc(O)cc1)NC(=O)[C@@H](NC(=O)[C@@H](NC(=O)[C@H](CC(=O)O)NC(=O)[C@H](CO)NC(=O)[C@H](CCSC)NC(=O)[C@@H](N)C(C)C)[C@@H](C)O)[C@@H](C)O)C(=O)O (H-VMSDTTYKI-OH; N-terminus and C-terminus assumed)	19.6 nM
CC[C@H](C)[C@H](NC(=O)[C@@H](NC(=O)[C@@H](NC(=O)[C@@H](N)Cc1ccc(O)cc1)[C@@H](C)CC)[C@@H](C)CC)C(=O)N[C@@H](CCC(=O)O)C(=O)N[C@@H](Cc1ccccc1)C(=O)N[C@@H](CCSC)C(=O)N[C@H](C(=O)N[C@@H](Cc1ccc(O)cc1)C(=O)NCC(=O)O)[C@@H](C)O (H-YIIIEFMTYG-OH; N-terminus and C-terminus assumed)	186 nM

same assay, conditions: allele A02.01; read-out: Observed Affinity (IC50; (nM))

IC50	SMILES
61.2 nM	CC(C)[C@H](NC(=O)[C@H](CO)NC(=O)[C@H](CS)NC(=O)[C@H](CO)NC(=O)[C@H](CCCCN)NC(=O)[C@@H](NC(=O)[C@H](CCC(=O)O)NC(=O)[C@H](Cc1ccccc1)NC(=O)[C@H](Cc1ccccc1)NC(=O)[C@@H](N)Cc1ccccc1)[C@@H](C)O)C(=O)O (H-FFFETKSCSV-OH; N-terminus and C-terminus assumed)
12.7 nM	CC[C@H](C)[C@H](N)C(=O)N[C@H](C(=O)N[C@@H](CO)C(=O)N[C@@H](CCCNC(=N)N)C(=O)N[C@H](C(=O)N[C@@H](CC(C)C)C(=O)N[C@@H](CC(C)C)C(=O)N[C@@H](CC(C)C)C(=O)N[C@H](C(=O)O)C(C)C)[C@@H](C)O)C(C)C (H-IVSRTLLLV-OH; N-terminus and C-terminus assumed)
916 nM	CC(C)C[C@H](NC(=O)[C@H](CC(C)C)NC(=O)[C@H](CC(=O)O)NC(=O)[C@H](CO)NC(=O)[C@H](CC(C)C)NC(=O)[C@@H]1CCCN1C(=O)[C@@H](NC(=O)[C@@H](NC(=O)[C@@H](N)CC(N)=O)C(C)C)C(C)C)C(=O)O (H-NVVPLSDLL-OH; N-terminus and C-terminus assumed)
59 nM	CSCC[C@H](NC(=O)[C@H](Cc1c[nH]cn1)NC(=O)[C@@H](NC(=O)[C@H](CC(C)C)NC(=O)[C@@H](NC(=O)[C@@H]1CCCN1C(=O)[C@H](C)NC(=O)[C@H](CC(C)C)NC(=O)[C@H](C)N)[C@@H](C)O)[C@@H](C)O)C(=O)O (H-ALAPTLTHM-OH; N-terminus and C-terminus assumed)
50.9 nM	CC(C)C[C@H](NC(=O)[C@H](Cc1c[nH]cn1)NC(=O)[C@H](Cc1c[nH]c2ccccc12)NC(=O)[C@H](CC(C)C)NC(=O)[C@@H](N)CCCNC(=N)N)C(=O)N[C@@H](CC(C)C)C(=O)N[C@@H](CC(C)C)C(=O)N[C@@H](CCC(N)=O)C(=O)N[C@H](C(=O)N[C@H](C(=O)O)[C@@H](C)O)C(C)C (H-RLWHLLLQVT-OH; N-terminus and C-terminus assumed)
4190 nM	CC(C)C[C@H](NC(=O)[C@H](CC(C)C)NC(=O)[C@H](CC(C)C)NC(=O)[C@H](CC(=O)O)NC(=O)[C@H](CC(N)=O)NC(=O)[C@H](CC(C)C)NC(=O)[C@@H]1CCCN1C(=O)[C@@H](NC(=O)[C@@H](NC(=O)[C@@H](N)CC(N)=O)C(C)C)C(C)C)C(=O)O (H-NVVPLNDLLL-OH; N-terminus and C-terminus assumed)
54.2 nM	CC(C)C[C@H](NC(=O)[C@H](C)NC(=O)[C@@H](NC(=O)[C@@H]1CCCN1C(=O)[C@@H](NC(=O)[C@H](CS)NC(=O)[C@H](CO)NC(=O)[C@H](CO)NC(=O)[C@H](CC(C)C)NC(=O)[C@@H](N)CCCNC(=N)N)C(C)C)C(C)C)C(=O)O [RLSSCVPVAL] (H-RLSSCVPVAL-OH; N-terminus and C-terminus assumed)
3030 nM	CC(C)C[C@H](NC(=O)[C@H](CC(C)C)NC(=O)[C@H](CC(=O)O)NC(=O)[C@H](CS)NC(=O)[C@H](CC(C)C)NC(=O)[C@@H]1CCCN1C(=O)[C@@H](NC(=O)[C@@H](NC(=O)[C@@H](N)CC(N)=O)C(C)C)C(C)C)C(=O)O (H-NVVPLCDLL-OH; N-terminus and C-terminus assumed)
64.5 nM	CC[C@H](C)[C@H](NC(=O)[C@H](CC(=O)O)NC(=O)[C@H](CC(C)C)NC(=O)[C@H](CC(C)C)NC(=O)[C@H](Cc1ccccc1)NC(=O)[C@H](Cc1ccccc1)NC(=O)[C@H](C)NC(=O)[C@@H](NC(=O)[C@@H](NC(=O)[C@@H](N)Cc1ccc(O)cc1)[C@@H](C)CC)[C@@H](C)O)C(=O)O (H-YITAFFLLDI-OH; N-terminus and C-terminus assumed)
45 nM	CC(C)C[C@H](NC(=O)[C@@H](N)CC(C)C)C(=O)N[C@@H](CCC(N)=O)C(=O)N[C@@H](CCC(=O)O)C(=O)N[C@@H](Cc1ccccc1)C(=O)N[C@@H](CC(=O)O)C(=O)N[C@H](C(=O)N[C@@H](CCC(N)=O)C(=O)N[C@@H](CCC(=O)O)C(=O)N[C@@H](C)C(=O)O)C(C)C (H-LLQEFDVQEA-OH)
10700 nM	CC[C@H](C)[C@H](NC(=O)[C@@H](NC(=O)[C@@H](NC(=O)[C@H](CC(C)C)NC(=O)[C@@H](NC(=O)[C@@H]1CCCN1C(=O)CNC(=O)CNC(=O)[C@@H](NC(=O)[C@@H](N)[C@@H](C)O)[C@@H](C)CC)[C@@H](C)O)C(C)C)[C@@H](C)CC)C(=O)O (H-TIGGPTLVII-OH; N-terminus and C-terminus assumed)
503 nM	CC(C)[C@H](NC(=O)[C@H](Cc1c[nH]cn1)NC(=O)[C@@H](NC(=O)[C@H](CCC(=O)O)NC(=O)[C@H](Cc1ccccc1)NC(=O)[C@H](CO)NC(=O)[C@@H](N)CC(N)=O)C(C)C)C(=O)N[C@@H](CS)C(=O)N[C@@H](C)C(=O)O (H-NSFEVHVCA-OH; N-terminus and C-terminus assumed)
1090 nM	CC[C@H](C)[C@H](N)C(=O)N[C@H](C(=O)N[C@@H](CCC(=O)O)C(=O)N[C@@H](Cc1ccc(O)cc1)C(=O)N[C@@H](CS)C(=O)N[C@@H](Cc1ccccc1)C(=O)N[C@@H](Cc1ccc(O)cc1)C(=O)NCC(=O)N[C@@H](CC(=O)O)C(=O)N[C@@H](CC(C)C)C(=O)O)[C@@H](C)CC (H-IIEYCFYGDL-OH; N-terminus and C-terminus assumed)
141 nM	CC(C)C[C@H](NC(=O)[C@H](C)N)C(=O)N[C@@H](CCC(=O)O)C(=O)N[C@@H](CCC(=O)O)C(=O)N[C@@H](CCCCN)C(=O)N[C@@H](CCCCN)C(=O)NCC(=O)N[C@@H](CC(N)=O)C(=O)N[C@@H](Cc1ccc(O)cc1)C(=O)N[C@H](C(=O)O)C(C)C (H-ALEEKKGNYV-OH; N-terminus and C-terminus assumed)
741 nM	CC(C)C[C@H](NC(=O)[C@H](CC(C)C)NC(=O)[C@H](CC(C)C)NC(=O)[C@H](CC(=O)O)NC(=O)[C@H](CO)NC(=O)[C@H](CC(C)C)NC(=O)[C@@H]1CCCN1C(=O)[C@@H](NC(=O)[C@@H](NC(=O)[C@@H](N)CC(N)=O)C(C)C)C(C)C)C(=O)O (H-NVVPLSDLLL-OH; N-terminus and C-terminus assumed)
6420 nM	CC[C@H](C)[C@H](N)C(=O)N[C@@H](C)C(=O)N[C@@H](CC(N)=O)C(=O)N[C@@H](CC(C)C)C(=O)N[C@@H](CC(C)C)C(=O)NCC(=O)N[C@@H](C)C(=O)N[C@@H](CS)C(=O)N[C@H](C(=O)N[C@H](C(=O)O)[C@@H](C)CC)[C@@H](C)O (H-IANLLGACTI-OH; N-terminus and C-terminus assumed)
19.5 nM	CC[C@H](C)[C@H](N)C(=O)N[C@@H](CC(C)C)C(=O)N[C@H](C(=O)N[C@@H](CCCNC(=N)N)C(=O)N[C@@H](CCCCN)C(=O)N[C@@H](C)C(=O)N[C@@H](CCSC)C(=O)N[C@H](C(=O)N[C@H](C(=O)O)C(C)C)[C@@H](C)O)[C@@H](C)CC (H-ILIRKAMTV-OH; N-terminus and C-terminus assumed)
604 nM	CC(C)C[C@H](NC(=O)[C@H](C)N)C(=O)N[C@@H](CCC(N)=O)C(=O)N1CCC[C@H]1C(=O)N[C@@H](CC(C)C)C(=O)N[C@@H](CCC(N)=O)C(=O)N1CCC[C@H]1C(=O)N[C@@H](Cc1c[nH]cn1)C(=O)N[C@@H](C)C(=O)O (H-ALQPLQPHA-OH; N-terminus and C-terminus assumed)
4440 nM	CSCC[C@H](NC(=O)[C@@H](N)Cc1ccc(O)cc1)C(=O)N[C@@H](C)C(=O)N[C@@H](CC(N)=O)C(=O)NCC(=O)N[C@@H](CO)C(=O)N[C@@H](CC(C)C)C(=O)N[C@@H](CC(C)C)C(=O)N[C@@H](CC(N)=O)C(=O)O (H-YMANGSLLN-OH; N-terminus and C-terminus assumed)
663 nM	CC(C)C[C@H](NC(=O)[C@H](Cc1ccccc1)NC(=O)[C@H](CO)NC(=O)[C@H](CC(C)C)NC(=O)[C@H](CS)NC(=O)[C@H](CO)NC(=O)[C@H](Cc1ccccc1)NC(=O)[C@H](CC(C)C)NC(=O)[C@H](CCCCN)NC(=O)[C@@H](N)Cc1ccccc1)C(=O)O (H-FKLFSCLSFL-OH; N-terminus and C-terminus assumed)

SMILES	IC50
CC[C@H](C)[C@H](NC(=O)[C@@H](NC(=O)[C@@H](NC(=O)[C@H](CC(C)C)NC(=O)[C@@H](NC(=O)[C@@H]1CCCN1C(=O)[C@H](CCCNC(=N)N)NC(=O)[C@H](CCC(N)=O)NC(=O)[C@@H](N)CC(N)=O)[C@@H](C)CC)[C@@H](C)O)[C@@H](C)CC)C(=O)O (H-NQRPILTII-OH; N-terminus and C-terminus assumed)	9610 nM
